Here are results for 19 compounds from patent US20240043427A1 (Gilead Sciences, Inc., priority 2020, published 2024).

In assay [1] the target is T1, CD73 (Homo sapiens (Human), UniProt P21589). It is filed as biochemical. Particulars: 1 mM NaH2PO4 in enzyme buffer, CD73 0.3 nM, AMP 15 uM.
The target of assay [2] is T1, CD73. Nature of the assay: MDA-MB-231 Cell Based CD73 Activity Assay (DMEM). The conditions noted are these: MDA-MB-231-GFP cells, DMEM medium with 10% human plasma, 200 uM AMP.

T1 sequence (P21589 27-574): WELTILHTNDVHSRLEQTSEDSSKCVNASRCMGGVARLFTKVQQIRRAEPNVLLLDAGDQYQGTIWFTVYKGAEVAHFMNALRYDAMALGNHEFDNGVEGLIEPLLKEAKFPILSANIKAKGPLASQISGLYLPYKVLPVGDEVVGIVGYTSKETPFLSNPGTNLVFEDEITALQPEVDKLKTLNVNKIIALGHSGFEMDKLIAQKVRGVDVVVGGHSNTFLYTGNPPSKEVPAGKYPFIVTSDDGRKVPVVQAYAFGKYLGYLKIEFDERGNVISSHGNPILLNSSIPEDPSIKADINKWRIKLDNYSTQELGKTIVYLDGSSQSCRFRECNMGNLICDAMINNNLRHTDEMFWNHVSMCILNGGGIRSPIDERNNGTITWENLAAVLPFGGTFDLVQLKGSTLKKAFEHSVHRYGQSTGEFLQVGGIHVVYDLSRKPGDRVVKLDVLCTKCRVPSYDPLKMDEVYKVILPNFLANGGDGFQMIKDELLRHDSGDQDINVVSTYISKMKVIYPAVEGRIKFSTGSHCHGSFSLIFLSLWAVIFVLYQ

On to `O=c1[nH]cc(-c2cc([C@H]3C[C@@H]3c3ccc4ccn(CC(F)(F)F)c4n3)c3nccn3n2)c(=O)[nH]1` [Example 126, 5-(8-((1S,2S)-2-(1-(2,2,2-trifluoroethyl)-1H-pyrrolo[2,3-b]pyridin-6-yl)cyclopropyl)imidazo[1,2-b]pyridazin-6-yl)pyrimidine-2,4(1H,3H)-dione], for which the 50% inhibitory concentration (IC50) in assay [1] is 1.13 nM. Further, the half-maximal effective concentration (EC50) in assay [2] was 0.46 nM.
`O=c1[nH]cc(-c2cc([C@H]3C[C@@H]3c3ccc4cnn(CC(F)F)c4c3F)c3nccn3n2)c(=O)[nH]1` [Example 129, 5-(8-((1S,2S)-2-(1-(2,2-difluoroethyl)-7-fluoro-1H-indazol-6-yl)cyclopropyl)imidazo[1,2-b]pyridazin-6-yl)pyrimidine-2,4(1H,3H)-dione] registered an IC50 in assay [1] of 1.11 nM. In assay [2], this compound displayed an EC50 of 0.3 nM.
In the case of `O=c1[nH]cc(-c2cc([C@H]3C[C@@H]3c3ccc4nc(C(F)(F)F)ccc4c3)c3nccn3n2)c(=O)[nH]1` [Example 131, 5-(8-((1S,2S)-2-(2-(trifluoromethyl)quinolin-6-yl)cyclopropyl)imidazo[1,2-b]pyridazin-6-yl)pyrimidine-2,4(1H,3H)-dione], the 50% inhibitory concentration (IC50) in assay [1] stood at 0.78 nM. Also, a half-maximal effect in assay [2] (EC50) was put at 6.1 nM.
Consider `O=c1[nH]cc(-c2cc([C@H]3C[C@@H]3c3ccc(OC(F)F)cn3)c3ncc(F)n3n2)c(=O)[nH]1` [Example 132, 5-(8-((1S,2S)-2-(5-(difluoromethoxy)pyridin-2-yl)cyclopropyl)-3-fluoroimidazo[1,2-b]pyridazin-6-yl)pyrimidine-2,4(1H,3H)-dione], for which, in assay [1], half-maximal inhibition (IC50) was put at 1.21 nM. It took 19.4 nM to reach a half-maximal effect in assay [2] (EC50).
In the case of `O=c1[nH]cc(-c2cc([C@H]3C[C@@H]3c3ccc4cnc(C(F)(F)F)cc4c3)c3nccn3n2)c(=O)[nH]1` [Example 133, 5-(8-((1S,2S)-2-(3-(trifluoromethyl)isoquinolin-6-yl)cyclopropyl)imidazo[1,2-b]pyridazin-6-yl)pyrimidine-2,4(1H,3H)-dione], the half-maximal inhibitory concentration (IC50) in assay [1] is 0.92 nM. Besides, the midpoint of the response in assay [2], the EC50, lay at 1.6 nM.
In assay [1], `O=c1[nH]cc(-c2cc([C@H]3C[C@@H]3c3cc(C(F)(F)F)c4ncccc4c3)c3ncc(F)n3n2)c(=O)[nH]1` [Example 134, 5-(3-fluoro-8-((1S,2S)-2-(8-(trifluoromethyl)quinolin-6-yl)cyclopropyl)imidazo[1,2-b]pyridazin-6-yl)pyrimidine-2,4(1H,3H)-dione] showed an IC50 of 1.17 nM. The compound further gave an EC50 in assay [2] of 22.7 nM.
In assay [1], `O=c1[nH]cc(-c2cc([C@H]3C[C@@H]3c3cc(C(F)(F)F)c4ncccc4c3)c3nccn3n2)c(=O)[nH]1` [Example 135, 5-(8-((1S,2S)-2-(8-(trifluoromethyl)quinolin-6-yl)cyclopropyl)imidazo[1,2-b]pyridazin-6-yl)pyrimidine-2,4(1H,3H)-dione] returned an IC50 of 1.99 nM. This compound also gave an EC50 in assay [2] of 44 nM.
`O=c1[nH]cc(-c2cc([C@H]3C[C@@H]3c3ccc(OC(F)F)cn3)c3nccn3n2)c(=O)[nH]1` [Example 137, 5-(8-((1S,2S)-2-(5-(difluoromethoxy)pyridin-2-yl)cyclopropyl)imidazo[1,2-b]pyridazin-6-yl)pyrimidine-2,4(1H,3H)-dione]: the 50% inhibitory concentration (IC50) in assay [1] stood at 1.28 nM. In assay [2], this compound returned a 50% effective concentration (EC50) of 4.68 nM.
In assay [1], `O=c1[nH]cc(-c2cc([C@H]3C[C@@H]3c3ccc4c(C(F)(F)F)ccnc4c3)c3nccn3n2)c(=O)[nH]1` [Example 139, 5-(8-((1S,2S)-2-(4-(trifluoromethyl)quinolin-7-yl)cyclopropyl)imidazo[1,2-b]pyridazin-6-yl)pyrimidine-2,4(1H,3H)-dione] had a concentration for half-maximal inhibition (IC50) of 4.55 nM. In addition, the EC50 in assay [2] came out at 296 nM.
Regarding `O=c1[nH]cc(-c2cc([C@H]3C[C@@H]3c3ccc(OC(F)F)nc3)c3nccn3n2)c(=O)[nH]1` [Example 140, 5-(8-((1S,2S)-2-(6-(difluoromethoxy)pyridin-3-yl)cyclopropyl)imidazo[1,2-b]pyridazin-6-yl)pyrimidine-2,4(1H,3H)-dione], the IC50 in assay [1] is 1.68 nM. The same compound gave a half-maximal effective concentration (EC50) in assay [2] of 5.25 nM.
In the case of `O=c1[nH]cc(-c2cc([C@H]3C[C@@H]3c3ccc(C(F)(F)F)cn3)c3ncc(F)n3n2)c(=O)[nH]1` [Example 144, 5-(3-fluoro-8-((1S,2S)-2-(5-(trifluoromethyl)pyridin-2-yl)cyclopropyl)imidazo[1,2-b]pyridazin-6-yl)pyrimidine-2,4(1H,3H)-dione], the IC50 in assay [1] was determined as 2.3 nM. In assay [2], this compound yielded an EC50 of 6.17 nM.
In turn, `CC1(C)CN(c2cc(-c3c[nH]c(=O)[nH]c3=O)nn3cc(C4CC4)nc23)CC1(F)F` [Example 145, 5-(2-cyclopropyl-8-(3,3-difluoro-4,4-dimethylpyrrolidin-1-yl)imidazo[1,2-b]pyridazin-6-yl)pyrimidine-2,4(1H,3H)-dione] registered an IC50 in assay [1] of 20.5 nM. This compound also showed a concentration giving a half-maximal response (EC50) in assay [2] of 41.7 nM.
The like results for `O=c1[nH]cc(-c2cc([C@H]3C[C@@H]3c3ccc(F)cc3F)c3nc(C4CC4)cn3n2)c(=O)[nH]1` [Example 146, 5-(2-cyclopropyl-8-((1S,2S)-2-(2,4-difluorophenyl)cyclopropyl)imidazo[1,2-b]pyridazin-6-yl)pyrimidine-2,4(1H,3H)-dione] were, in that order, 6.12 nM and 46.7 nM.
In the case of `O=c1[nH]cc(-c2cc(N3CC(F)C4(CC4)C3)n3nccc3n2)c(=O)[nH]1` (centres unmarked) [Example 147, 5-(7-(7-fluoro-5-azaspiro[2.4]heptan-5-yl)pyrazolo[1,5-a]pyrimidin-5-yl)pyrimidine-2,4(1H,3H)-dione], the IC50 in assay [1] stood at 39 nM. In addition, the concentration giving a half-maximal response (EC50) in assay [2] stood at 96.1 nM.
In the case of `O=c1[nH]cc(-c2cc(N3CC(F)C4(CC4)C3)c3ncc(F)n3n2)c(=O)[nH]1` (centres unmarked) [Example 148, 5-(3-fluoro-8-(7-fluoro-5-azaspiro[2.4]heptan-5-yl)imidazo[1,2-b]pyridazin-6-yl)pyrimidine-2,4(1H,3H)-dione], in assay [1], half-maximal inhibition (IC50) was put at 8 nM. Further, the EC50 in assay [2] stood at 17.9 nM.
Compound `O=c1[nH]cc(-c2cc([C@H]3C[C@@H]3c3ccc(C(F)(F)F)cn3)c3nccn3n2)c(=O)[nH]1` [Example 150, 5-(8-((1S,2S)-2-(5-(trifluoromethyl)pyridin-2-yl)cyclopropyl)imidazo[1,2-b]pyridazin-6-yl)pyrimidine-2,4(1H,3H)-dione] displayed an IC50 in assay [1] of 1.93 nM. A half-maximal response in assay [2] (EC50) required 4.79 nM.
As to `O=c1[nH]cc(-c2cc([C@H]3C[C@@H]3c3ccc(C(F)(F)F)nc3)c3nccn3n2)c(=O)[nH]1` [Example 153, 5-(8-((1S,2S)-2-(6-(trifluoromethyl)pyridin-3-yl)cyclopropyl)imidazo[1,2-b]pyridazin-6-yl)pyrimidine-2,4(1H,3H)-dione], it took 2.3 nM to reach half-maximal inhibition in assay [1] (IC50). In assay [2], this compound had a 50% effective concentration (EC50) of 8.85 nM.
On to `N#Cc1ccc([C@H]2C[C@@H]2c2cc(-c3c[nH]c(=O)[nH]c3=O)nn3c(F)cnc23)cc1` [Example 158, 4-((1S,2S)-2-(6-(2,4-dioxo-1,2,3,4-tetrahydropyrimidin-5-yl)-3-fluoroimidazo[1,2-b]pyridazin-8-yl)cyclopropyl)benzonitrile], for which the IC50 in assay [1] stood at 0.55 nM. Further, the 50% effective concentration (EC50) in assay [2] was found to be 2.52 nM.
`O=c1[nH]cc(-c2cc([C@H]3C[C@@H]3c3ccccn3)c3nccn3n2)c(=O)[nH]1` [Example 159, 5-(8-((1S,2S)-2-(pyridin-2-yl)cyclopropyl)imidazo[1,2-b]pyridazin-6-yl)pyrimidine-2,4(1H,3H)-dione] yielded an IC50 in assay [1] of 1.76 nM. In addition, in assay [2], the half-maximal effective concentration (EC50) came out at 2.62 nM.
